Test system: Cucumis sativus
Test: Induction of membrane damage in Cucumis sativus (cucumber) cotyledon disks assessed as compound level causing […] ethane production incubated under white light for 24 hr at 20 degC
Format: functional

SMILES | Activity
C#C[C@H](C)Oc1cc(N2C(=O)C3=C(CCCC3)C2=O)c(F)cc1Cl [(S)-S-23121] | 21 nM
C#C[C@@H](C)Oc1cc(N2C(=O)C3=C(CCCC3)C2=O)c(F)cc1Cl | 178 nM
